The results in this text go back to ChEMBL document CHEMBL1177813, “Design and synthesis of trivalent ligands targeting opioid, cholecystokinin, and melanocortin receptors for the treatment of pain” (Bioorg Med Chem Lett, 2010).

In general, pIC50 refers to −log10 of the IC50, conventionally taken in molar units. What is called pKi is −log10 of the Ki, conventionally taken in molar units.

pIC50, pKi: −log10 of the molar value. Activity calls are given as the source filed them. The rule behind the calls is not given here. Where a SMILES comes first, the peptide text is derived from it. [ ]: non-standard residue; d: D form. Nle = CCCC[C@H](N)C(=O)O

The species entered for experiment [1] is Homo sapiens. The experiment can be described thus: Selectivity ratio of Ki for human CCK1 receptor to Ki for human CCk2 receptor.
The species entered for experiment [2] is Cavia porcellus. The experiment can be described thus: […] activity at CCK receptor in Hartley guinea pig ileum longitudinal muscle with myenteric plexus assessed as inhibition of CCK8-stimulated muscle contraction at 1 uM. It is filed as functional, tissue-based.
Experiment [3] concerns the target T1, Gastrin/cholecystokinin type B receptor (Homo sapiens, UniProt P32239).
T1 sequence (P32239 whole entry): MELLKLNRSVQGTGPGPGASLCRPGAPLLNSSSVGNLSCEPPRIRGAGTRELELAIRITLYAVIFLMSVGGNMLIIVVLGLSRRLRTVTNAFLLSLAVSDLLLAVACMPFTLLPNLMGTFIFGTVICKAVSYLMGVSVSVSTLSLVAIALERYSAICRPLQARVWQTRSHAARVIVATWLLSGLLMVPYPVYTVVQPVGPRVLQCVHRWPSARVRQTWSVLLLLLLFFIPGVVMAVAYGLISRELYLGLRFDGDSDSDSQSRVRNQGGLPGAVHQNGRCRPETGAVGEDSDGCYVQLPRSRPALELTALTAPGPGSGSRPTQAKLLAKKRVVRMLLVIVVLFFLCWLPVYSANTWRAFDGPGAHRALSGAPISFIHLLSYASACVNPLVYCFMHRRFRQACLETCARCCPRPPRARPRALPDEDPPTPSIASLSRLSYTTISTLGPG
The experiment can be described thus: Displacement of [125I]CCK-8(SO3) from human CCK2 receptor expressed in human HEK293 cells. It is filed as cell-based. Particulars: for pKi: read-out: Ki; for Ki: hek293. Background: Loss of bound radioactivity is the signal in a displacement assay; it reports binding, not function.

Experiment [4] can be described thus: Agonist activity at CCK receptor in Hartley guinea pig ileum longitudinal muscle with myenteric plexus assessed as inhibition of electrically-stimulated muscle contraction at 1 uM relative to KCl. Details: scale not given: the % may be the effect or the level left. Type of experiment: functional, Cavia porcellus.
In experiment [5] the target is Mu-type opioid receptor (Cavia porcellus, UniProt P97266). The experiment can be described thus: Agonist activity at mu opioid receptor in guinea pig ileum assessed as inhibition of electrically-stimulated muscle contraction. Type of experiment: functional, tissue-based.
Sequence of Mu-type opioid receptor (Cavia porcellus, UniProt P97266) (P97266 whole entry): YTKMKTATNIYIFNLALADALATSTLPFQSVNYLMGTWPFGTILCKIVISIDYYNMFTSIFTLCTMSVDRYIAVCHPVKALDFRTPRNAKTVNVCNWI
The target of experiment [6] is Delta-type opioid receptor (Homo sapiens, UniProt P41143). As to the kind of experiment: Displacement of [3H]DPDPE from human delta opioid receptor expressed in mouse HN9.10 cells. It is filed as cell-based.
Sequence of Delta-type opioid receptor (Homo sapiens, UniProt P41143) (P41143 whole entry): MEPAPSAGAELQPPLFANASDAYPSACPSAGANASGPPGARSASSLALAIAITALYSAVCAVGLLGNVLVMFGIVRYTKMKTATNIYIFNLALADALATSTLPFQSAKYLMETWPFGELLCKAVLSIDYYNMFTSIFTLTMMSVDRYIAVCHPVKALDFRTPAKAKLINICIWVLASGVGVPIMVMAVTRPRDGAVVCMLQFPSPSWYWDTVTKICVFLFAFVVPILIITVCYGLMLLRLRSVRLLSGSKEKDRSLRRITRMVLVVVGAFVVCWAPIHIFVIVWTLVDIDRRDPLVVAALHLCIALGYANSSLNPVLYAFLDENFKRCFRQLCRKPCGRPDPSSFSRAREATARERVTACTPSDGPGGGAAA
For experiment [7], the target named is Delta-type opioid receptor (Mus musculus, UniProt P32300). The experiment can be described thus: Agonist activity at delta opioid receptor in mouse vas deferens assessed as inhibition of electrically-stimulated muscle contraction. It is filed as functional, tissue-based.
Sequence of Delta-type opioid receptor (Mus musculus, UniProt P32300) (P32300 whole entry): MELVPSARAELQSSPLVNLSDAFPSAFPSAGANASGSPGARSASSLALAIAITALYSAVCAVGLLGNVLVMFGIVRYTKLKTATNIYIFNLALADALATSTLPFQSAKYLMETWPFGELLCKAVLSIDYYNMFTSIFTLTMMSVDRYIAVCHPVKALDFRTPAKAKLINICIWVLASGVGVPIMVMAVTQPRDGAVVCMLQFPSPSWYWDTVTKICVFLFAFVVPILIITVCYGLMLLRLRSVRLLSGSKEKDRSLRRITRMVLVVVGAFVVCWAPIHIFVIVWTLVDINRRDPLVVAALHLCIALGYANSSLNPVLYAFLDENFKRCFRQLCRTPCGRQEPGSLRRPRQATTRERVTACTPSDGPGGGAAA
The target in experiment [8] is Melanocortin receptor 4 (Homo sapiens, UniProt P32245). The experiment can be described thus: Displacement of Eu-NDP-alphaMSH from human MC4 receptor expressed in human HEK293 cells. It is filed as cell-based.
Sequence of Melanocortin receptor 4 (P32245 whole entry): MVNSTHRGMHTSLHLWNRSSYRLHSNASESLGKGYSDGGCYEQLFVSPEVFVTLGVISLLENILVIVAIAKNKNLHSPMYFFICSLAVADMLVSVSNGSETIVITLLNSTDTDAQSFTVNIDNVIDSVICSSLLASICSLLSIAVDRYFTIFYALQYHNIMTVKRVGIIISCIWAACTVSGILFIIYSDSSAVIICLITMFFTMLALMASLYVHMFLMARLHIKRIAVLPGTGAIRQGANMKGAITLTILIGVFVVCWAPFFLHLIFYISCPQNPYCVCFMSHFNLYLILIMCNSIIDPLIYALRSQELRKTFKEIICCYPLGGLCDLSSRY
Experiment [9] has as its target Mu-type opioid receptor (Rattus norvegicus, UniProt P33535). The experiment can be described thus: Displacement of [3H]DAMGO from rat mu opioid receptor expressed in mouse HN9.10 cells. It is filed as cell-based.
For experiment [10], the target named is T2, Cholecystokinin receptor type A (Homo sapiens, UniProt P32238).
T2 sequence (P32238 whole entry): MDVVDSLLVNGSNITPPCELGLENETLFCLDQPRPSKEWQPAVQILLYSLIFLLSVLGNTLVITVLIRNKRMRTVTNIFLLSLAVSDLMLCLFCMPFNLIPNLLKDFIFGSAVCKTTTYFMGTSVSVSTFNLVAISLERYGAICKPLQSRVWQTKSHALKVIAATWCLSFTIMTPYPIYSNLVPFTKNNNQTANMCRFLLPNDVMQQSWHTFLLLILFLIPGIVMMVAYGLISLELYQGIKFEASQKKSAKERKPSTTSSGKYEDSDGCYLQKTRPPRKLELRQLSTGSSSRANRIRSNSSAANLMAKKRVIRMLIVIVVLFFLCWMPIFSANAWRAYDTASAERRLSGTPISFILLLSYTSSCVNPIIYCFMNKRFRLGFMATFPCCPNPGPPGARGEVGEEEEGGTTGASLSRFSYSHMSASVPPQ
As to the kind of experiment: Displacement of [125I]CCK-8(SO3) from human CCK1 receptor expressed in human HEK293 cells. It is filed as cell-based. The following applies: for pKi: read-out: Ki; for Ki: hek293.

Sequence of Mu-type opioid receptor (Rattus norvegicus, UniProt P33535) (P33535 whole entry): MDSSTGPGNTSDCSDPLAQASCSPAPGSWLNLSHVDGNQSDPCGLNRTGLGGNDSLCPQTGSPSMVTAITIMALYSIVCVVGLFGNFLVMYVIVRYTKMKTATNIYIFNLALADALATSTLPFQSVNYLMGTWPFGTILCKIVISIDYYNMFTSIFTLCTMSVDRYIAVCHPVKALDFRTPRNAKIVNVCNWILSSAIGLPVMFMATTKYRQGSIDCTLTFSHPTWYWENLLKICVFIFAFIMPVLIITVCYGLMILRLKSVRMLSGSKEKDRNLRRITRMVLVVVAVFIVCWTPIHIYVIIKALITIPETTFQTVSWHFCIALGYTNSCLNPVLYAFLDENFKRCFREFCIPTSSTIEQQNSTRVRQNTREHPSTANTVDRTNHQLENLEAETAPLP

With `CCCC[C@H](NC(=O)[C@H](Cc1c[nH]c2ccccc12)NC(=O)[C@H](CCCNC(=N)N)NC(=O)[C@@H](Cc1ccc2ccccc2c1)NC(=O)[C@H](Cc1cnc[nH]1)NC(=O)[C@H](Cc1ccccc1)NC(=O)CNC(=O)[C@@H](C)NC(=O)[C@@H](N)Cc1ccc(O)cc1)C(=O)N[C@@H](CC(=O)O)C(=O)N[C@@H](Cc1ccccc1)C(N)=O`, in experiment [1], the Ratio Ki worked out at 0.075. The Ke entry in [2] is “inactive”. Further, the pIC50 in experiment [3] is 6.90; in [5], 6.70; in [6], 8.20; in experiment [7], 7.22; in [8], 6.59; in experiment [9], 8.90. The pIC50 in experiment [10] is 8.00. For the same compound, the pKi in [3] is 6.92; in experiment [6], 8.54; in experiment [9], 9.16; in experiment [10] it was 8.05. The Activity in [4] was found to be 0%.

On to `CCCC[C@H](NC(=O)[C@H](Cc1c[nH]c2ccccc12)NC(=O)[C@H](CCCN=C(N)N)NC(=O)[C@@H](Cc1ccc2ccccc2c1)NC(=O)[C@H](Cc1cnc[nH]1)NC(=O)[C@@H](N)Cc1ccccc1)C(N)=O`, for which the negative-log IC50 (pIC50) in experiment [8] was 6.70.

With `CCCC[C@H](NC(=O)[C@H](Cc1c[nH]c2ccccc12)NC(=O)[C@H](CCCNC(=N)N)NC(=O)[C@@H](Cc1ccc2ccccc2c1)NC(=O)[C@H](Cc1cnc[nH]1)NC(=O)[C@H]1Cc2ccccc2CN1C(=O)[C@@H](N)Cc1c(C)cc(O)cc1C)C(=O)N[C@@H](CC(=O)O)C(=O)N[C@@H](Cc1ccccc1)C(N)=O`, the Ke result in experiment [2] is “inactive”. Moreover, the Activity in [4] turned out to be 0%.

For `Cc1cc(O)cc(C)c1C[C@H](N)C(=O)N1CC(=O)N[C@@H](Cc2cnc[nH]2)C(=O)N[C@H](Cc2ccc3ccccc3c2)C(=O)N[C@@H](CCCNC(=N)N)C(=O)N[C@@H](Cc2c[nH]c3ccccc23)C(=O)N[C@H](C(=O)N[C@@H](CC(=O)O)C(=O)N[C@@H](Cc2ccccc2)C(N)=O)CSSC[C@@H](N)C1=O`, the Ke result in [2] was “inactive”. Moreover, the Ki result in [3] and in [10] was “Not Active” each time. The Activity in experiment [4] is listed as 0%. The pIC50 is 6.55 in experiment [5]; 7.90 in experiment [6]; 6.21 in [7]; 6.36 in [8]; 7.90 in experiment [9]. Further, the pKi in experiment [6] is 8.25; in experiment [9], 8.23.

As for `CCCC[C@H](NC(=O)[C@H](Cc1c[nH]c2ccccc12)NC(=O)[C@H](CCCNC(=N)N)NC(=O)[C@@H](Cc1ccccc1)NC(=O)[C@H](Cc1cnc[nH]1)NC(=O)[C@H](Cc1ccccc1)NC(=O)CNC(=O)[C@@H](C)NC(=O)[C@@H](N)Cc1ccc(O)cc1)C(=O)N[C@@H](CC(=O)O)C(=O)N[C@@H](Cc1ccccc1)C(N)=O`, the Ke result in experiment [2] is “inactive”. Moreover, the pIC50 was 7.50 in [3]; 6.89 in [5]; 7.90 in experiment [6]; 7.40 in experiment [7]; 5.89 in experiment [8]; 7.50 in experiment [9]. This compound also gave a negative-log IC50 (pIC50) in experiment [10] of 5.60. Also, the negative-log Ki (pKi) in [3] is 7.74; in experiment [6], 8.21; in [9], 7.85; in [10], 5.85. In [4], the Activity is on record as 0%.

In the case of `C[C@@H](NC(=O)[C@@H](N)Cc1ccc(O)cc1)C(=O)NCC(=O)N[C@@H](Cc1ccccc1)C(=O)NCCCC[C@H](NC(=O)[C@H](Cc1c[nH]c2ccccc12)NC(=O)[C@H](CCCN=C(N)N)NC(=O)[C@@H](Cc1ccc(Cl)cc1)NC(=O)[C@@H](N)Cc1cnc[nH]1)C(=O)N[C@@H](CC(=O)O)C(=O)N[C@@H](Cc1ccccc1)C(N)=O`, the negative logarithm of the IC50 (pIC50) in [5] was 6.48.

In the case of `C[C@@H](NC(=O)[C@@H](N)Cc1ccc(O)cc1)C(=O)NCC(=O)N[C@@H](Cc1ccccc1)C(=O)NCCCC[C@H](NC(=O)[C@H](Cc1c[nH]c2ccccc12)NC(=O)[C@H](CCCNC(=N)N)NC(=O)[C@@H](Cc1ccc(Cl)cc1)NC(=O)[C@@H](N)Cc1cnc[nH]1)C(=O)N[C@@H](CC(=O)O)C(=O)N[C@@H](Cc1ccccc1)C(N)=O`, in [2], the Ke result is “inactive”. The Ki result in [3] and in experiment [10] was “Not Active” each time. Besides, the Activity in experiment [4] is reported as 0%.

With `Cc1cc(O)cc(C)c1C[C@H](N)C(=O)N1CC(=O)N[C@@H](Cc2cnc[nH]2)C(=O)N[C@H](Cc2ccccc2)C(=O)N[C@@H](CCCNC(=N)N)C(=O)N[C@@H](Cc2c[nH]c3ccccc23)C(=O)N[C@H](C(=O)N[C@@H](CC(=O)O)C(=O)N[C@@H](Cc2ccccc2)C(N)=O)CSSC[C@@H](N)C1=O`, the Ke result in [2] is “inactive”. The Ki result in experiment [3] is listed as “Not Active”. The Activity in experiment [4] turned out to be 0%.

In the case of `CCCC[C@H](NC(=O)[C@H](Cc1c[nH]c2ccccc12)NC(=O)[C@H](CCCNC(=N)N)NC(=O)[C@@H](Cc1ccc2ccccc2c1)NC(=O)[C@H](Cc1cnc[nH]1)NC(=O)[C@H](Cc1ccccc1)NC(=O)[C@@H](C)NC(=O)[C@@H](N)Cc1ccc(O)cc1)C(=O)N[C@@H](CC(=O)O)C(=O)N[C@@H](Cc1ccccc1)C(N)=O`, the Ratio Ki in experiment [1] was 119. Also, the Ke result in experiment [2] was “inactive”. In addition, the negative-log IC50 (pIC50) in experiment [3] was 6.70; in [5] it was 5.64; in experiment [6], 7.10; in experiment [7] it was 6.43; in experiment [8], 6.15; in experiment [9], 6.30. Moreover, the negative logarithm of the IC50 (pIC50) in experiment [10] was 8.80. Also, the pKi in [3] is 6.72; in [6] it was 7.38; in experiment [9] it was 6.60; in [10], 8.80. In addition, the Activity in experiment [4] is listed as 0%.

Regarding `CCCC[C@H](NC(=O)[C@@H](N)Cc1ccc(O)cc1)C(=O)N[C@@H](CC(=O)O)C(=O)N[C@@H](Cc1ccccc1)C(N)=O` (H-Y[Nle]DF-NH2), the Ki result in experiment [10] was “Not Active”.

For the compound `CCCC[C@H](NC(=O)[C@H](Cc1c[nH]c2ccccc12)NC(=O)[C@H](CCCN=C(N)N)NC(=O)[C@@H](Cc1ccc2ccccc2c1)NC(=O)[C@H](Cc1cnc[nH]1)NC(=O)[C@H](Cc1ccccc1)NC(=O)[C@@H](C)NC(=O)[C@@H](N)Cc1c(C)cc(O)cc1C)C(=O)N[C@@H](CC(=O)O)C(=O)N[C@@H](Cc1ccccc1)C(N)=O`, the pIC50 in experiment [3] was 6.70; in [5], 7.18; in [6], 8.10; in experiment [7], 6.96; in [8] it was 6.30; in experiment [9], 8.00. In [10], the negative logarithm of the IC50 (pIC50) was 9.10. Also, the results for the pKi in experiment [3], in [6] and in [9] were 6.74, 8.43 and 8.31, respectively.

Take `CCCC[C@H](NC(=O)[C@H](Cc1c[nH]c2ccccc12)NC(=O)[C@H](CCCNC(=N)N)NC(=O)[C@@H](Cc1ccc2ccccc2c1)NC(=O)[C@H](Cc1cnc[nH]1)NC(=O)[C@H](Cc1ccccc1)NC(=O)[C@@H](C)NC(=O)[C@@H](N)Cc1c(C)cc(O)cc1C)C(=O)N[C@@H](CC(=O)O)C(=O)N[C@@H](Cc1ccccc1)C(N)=O`: the Ke result in experiment [2] is “inactive”. Further, the Activity in [4] came out at 0%.

For `CCCC[C@H](NC(=O)[C@H](Cc1c[nH]c2ccccc12)NC(=O)[C@H](CCCN=C(N)N)NC(=O)[C@@H](Cc1ccc2ccccc2c1)NC(=O)[C@H](Cc1cnc[nH]1)NC(=O)[C@H]1Cc2ccccc2CN1C(=O)[C@@H](N)Cc1c(C)cc(O)cc1C)C(=O)N[C@@H](CC(=O)O)C(=O)N[C@@H](Cc1ccccc1)C(N)=O`, the negative logarithm of the IC50 (pIC50) in experiment [3] is 6.90; in [5] it was 6.24; in experiment [6], 7.90; in experiment [7], 6.89; in experiment [8], 6.80; in [9], 7.40. In addition, the negative-log IC50 (pIC50) in experiment [10] is 7.50. Further, the negative logarithm of the Ki (pKi) in experiment [3] was 7.00; in experiment [6] it was 8.21; in [9], 7.74; in [10] it was 7.49.
